Several values for one entry are separate records, joined by “and”; a condition that tells them apart may be missing. Equal values may be shown once. No end group written: not given here.

In this test the target is T1, recombinant human NRP-1 (hNRP-1) (Homo sapiens, UniProt O14786).
T1 construct: purchased BioLegend, San Diego, CA, USA
T1 sequence (O14786 22-923): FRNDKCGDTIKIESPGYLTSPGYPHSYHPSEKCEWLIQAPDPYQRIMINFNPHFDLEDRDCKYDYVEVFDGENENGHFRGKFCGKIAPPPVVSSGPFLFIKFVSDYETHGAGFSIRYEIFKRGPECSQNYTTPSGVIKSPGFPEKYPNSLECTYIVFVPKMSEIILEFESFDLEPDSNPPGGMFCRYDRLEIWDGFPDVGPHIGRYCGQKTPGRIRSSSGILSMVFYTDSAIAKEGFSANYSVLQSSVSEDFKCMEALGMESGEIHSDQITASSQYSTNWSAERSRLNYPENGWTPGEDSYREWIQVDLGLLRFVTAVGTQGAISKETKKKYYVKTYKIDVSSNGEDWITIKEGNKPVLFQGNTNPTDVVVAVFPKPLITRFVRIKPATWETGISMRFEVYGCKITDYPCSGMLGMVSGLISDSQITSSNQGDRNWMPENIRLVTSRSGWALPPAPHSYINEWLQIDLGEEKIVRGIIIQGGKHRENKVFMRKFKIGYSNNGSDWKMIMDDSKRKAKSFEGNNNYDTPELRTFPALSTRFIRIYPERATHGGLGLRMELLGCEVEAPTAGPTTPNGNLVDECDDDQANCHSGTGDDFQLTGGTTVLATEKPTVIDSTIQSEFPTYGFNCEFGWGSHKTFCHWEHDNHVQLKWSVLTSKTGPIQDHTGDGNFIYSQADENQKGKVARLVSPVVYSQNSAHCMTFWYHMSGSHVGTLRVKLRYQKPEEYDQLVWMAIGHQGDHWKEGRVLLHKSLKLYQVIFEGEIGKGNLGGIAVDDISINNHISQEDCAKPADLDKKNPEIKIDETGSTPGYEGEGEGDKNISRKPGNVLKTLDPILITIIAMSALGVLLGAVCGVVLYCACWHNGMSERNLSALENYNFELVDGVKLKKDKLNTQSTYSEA
The test can be described thus: chemoluminescence affinity detection: displacement of biotinylated VEGF165A from coated NRP-1. The format is binding. The following applies: VEGF 165A displacement from NRP-1; compounds at 12.5-100 µM; ± standard (fitting) error.
Experimental: In this work, a dedicated chemoluminescence affinity detection method was used.
Briefly, the surfaces of flat-bottom polystyrene wells of 96-well plates were coated with human recombinant Neuropilin-1. The wells were then incubated with human biotinylated VEGF165A {h(bt)VEGF} and subsequently with different concentrations of studied compounds, which then competitively bound to the NRP-1 detaching VEGF. The wells were then treated with streptavidin–horseradish peroxidase conjugate and with chemoluminescent substrate. Thus, the obtained color signal was directly proportional to the amount of bound biotinylated VEGF and therefore to the strength of the interaction of studied compounds with NRP-1 competing with VEGF. IC50 was calculated as the concentration at which half of the bound VEGF was detached from NRP-1.
The flat-bottom wells of polystyrene microplates (Nunc Immuno™ MicroWell™ 96 well solid plates) were coated overnight at 4 °C with recombinant human NRP-1 (hNRP-1) (BioLegend, San Diego, CA, USA) at 2 µg/mL. Then, the wells were washed twice with 0.5% Tween20 phosphate-buffered saline (PBS) and subsequently incubated for 2 h at RT with 200 µL of 10.5% BSA in PBS in order to block unspecific binding. The plates were then rinsed with distilled water and were subsequently incubated for 2 h at RT with 50 µL (400 ng/mL) of h(bt)VEGF 165 A (Abcam, Cambridge, UK) in PBS with 4 µg/mL heparine as well as with 50 µL of the studied compounds in PBS in different concentrations (12.5 µM, 25 µM, 50 µM and 100 µM). The plates were rinsed again with distilled water and incubated for 45 min at RT in 100 µL of streptavidin–horseradish peroxidase conjugate in PBS. After one more water rinse, 100 μL chemiluminescent substrate was added. The luminescence was quantified immediately after addition of the substrate. The percentages of inhibition were calculated with the formula 100% − {(S − SN)/(P − NS)} × 100%. S is the intensity of the measured signal, NS is the intensity of the measured signal in the negative control and P is the intensity of the measured signal in the positive control. The positive control was incubated solely with VEGF 165A with no studied compound. Negative control was obtained from wells which were not coated with hNRP-1. All experiments were performed in triplicate. Determination of IC50 was carried out using the nonlinear regression function with Prism (Version 10.1.2, GraphPad software). The standard (fitting) error of the mean was calculated using Prism’s Sy.x function.
As to `N=C(N)NCCCC[C@H](N)C(=O)NCCCC[C@@H](N)C(=O)NCc1cn(Cc2cn([C@@H](CCCNC(=N)N)C(=O)O)nn2)nn1` [1D, H-D-Lys(Har)-Gly[Trl]Gly[Trl]Arg-OH], the IC50 was found to be 63.6 ± 2.3 µM.

For `N=C(N)NCCCC[C@H](N)C(=O)NCCCC[C@H](N)C(=O)NCc1cn(Cc2cn([C@@H](CCCNC(=N)N)C(=O)O)nn2)nn1` [1L, H-Lys(Har)-Gly[Trl]Gly[Trl]Arg-OH], the IC50 is 68.5 ± 3.3 µM.

As to `CC(C)(c1cn([C@@H](CCCNC(=N)N)C(=O)O)nn1)n1cc(CNC(=O)[C@H](N)CCCCNC(=O)[C@@H](N)CCCCNC(=N)N)nn1` [2D, H-D-Lys(Har)-Gly[Trl]Mba[Trl]Arg-OH], the IC50 is 69.4 ± 4 µM.

Consider `CC(C)(c1cn([C@@H](CCCNC(=N)N)C(=O)O)nn1)n1cc(CNC(=O)[C@@H](N)CCCCNC(=O)[C@@H](N)CCCCNC(=N)N)nn1` [2L, H-Lys(Har)-Gly[Trl]Mba[Trl]Arg-OH], for which the IC50 was 87.5 ± 3.3 µM.

For `CC(C)(NC(=O)[C@H](N)CCCCNC(=O)[C@@H](N)CCCCNC(=N)N)c1cn(C(C)(C)c2cn([C@@H](CCCNC(=N)N)C(=O)O)nn2)nn1` [3D, H-D-Lys(Har)-Mba[Trl]Mba[Trl]Arg-OH], the IC50 was 91 µM and 90.5 µM.

For the compound `CC(C)(NC(=O)[C@@H](N)CCCCNC(=O)[C@@H](N)CCCCNC(=N)N)c1cn(C(C)(C)c2cn([C@@H](CCCNC(=N)N)C(=O)O)nn2)nn1` [3L, H-Lys(Har)-Mba[Trl]Mba[Trl]Arg-OH], the IC50 was 23 µM and 23.4 µM.

With `CC(C)(NC(=O)[C@H](N)CCCCNC(=O)[C@@H](N)CCCCNC(=N)N)c1cn(Cc2cn([C@@H](CCCNC(=N)N)C(=O)O)nn2)nn1` [4D, H-D-Lys(Har)-Mba[Trl]Gly[Trl]Arg-OH], the IC50 was 36 µM and 35.6 µM.

Turning to “ATWLPPR [A7R, ATWLPPR, reference compound]”, the IC50 amounted to 31.2 ± 4.2 µM.

Values taken from article PMC10891769, “Chirality and Rigidity in Triazole-Modified Peptidomimetics Interacting with Neuropilin-1” (Pharmaceuticals, 2024).
